From PubChem BioAssay (NCI) come the findings set out here.

Test in all cases: inhibition of tumour cell growth, NCI panel, 48 h
The test system of assay [1] is COLO 205 colon.
In assay [2] the test system is HT29 colon.
Assay [3] deals with K-562 leukemia.
Assay [4] relates to NCI-H23 lung.
Assay [5] deals with RPMI-8226 leukemia.
In assay [6] the test system is SNB-19 CNS.
The test system of assay [7] is SNB-75 CNS.
Assay [8] concerns U251 CNS.

Where “and” joins values, the source holds several entries; their conditions need not be identical. Equal entries are not always repeated.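 In this assay, cells in 96-well plates receive the compound at five concentrations for 48 hours. Endpoints are linearly interpolated between the surrounding concentrations. At the GI50, growth is halved. The concentration for full growth arrest is given as TGI.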

For `OCc1ccc(N(Cc2ccc(F)cc2)CC2CCC2)cc1Cl`, the GI50 in assay [1] was 13.5 µM; in assay [2], 12.9 µM; in assay [3], 6.4 µM; in assay [4], 10.7 µM; in assay [5], 9.28 µM; in assay [6], 14 µM. The GI50 in assay [7] was 12.4 µM; in assay [8], 5.43 µM. Moreover, the TGI was 26.6 µM in assay [1]; 26.2 µM in assay [2]; 22.7 µM in assay [3]; 24.7 µM in assay [4]; 31.6 µM in assay [5]; 27.3 µM in assay [6]. The figures for the TGI in assay [7] and in assay [8] were 25.3 µM and 19.6 µM, respectively.
On to `O=C1NC(=N[C@H](CO)c2ccccc2)S/C1=C\c1ccc2ncccc2c1`, for which the GI50 is 3.54 µM in assay [1]; 6.1 µM in assay [2]; 4 µM in assay [3]; 6.42 µM in assay [4]; 3.73 µM in assay [5]; 3.73 µM in assay [6]. Further, the GI50 in assay [7] is 1.46 µM; in assay [8], 1.96 µM. The TGI in assay [1] is above 25 µM; in assay [2] it was above 25 µM; in assay [3], above 25 µM; in assay [4], above 25 µM; in assay [5] it was 10.9 µM; in assay [6] it was above 25 µM. The TGI was 17.7 µM in assay [7] and above 19.8 µM in assay [8].
Take `c1cc2c(c(NC3=NCCN3)c1)CCCC2`: the TGI in assay [1], in assay [2], in assay [3], in assay [4], in assay [5] and in assay [6] was above 100 µM each time. Also, the TGI in assay [7] and in assay [8] was above 100 µM in each case.
Turning to `C=C1C(=O)C2(C)OC2(C)C1C(=O)O` (centres undefined), the TGI in assay [1], in assay [2], in assay [3], in assay [4], in assay [5] and in assay [6] was above 100 µM each time. Also, the TGI in assay [7] and in assay [8] was above 100 µM throughout.
`N#Cc1c(N)c(C#N)c2c(c1-c1ccc(Cl)cc1)COc1ccc(F)cc1-2`: the GI50 in assay [1] was above 50 µM; in assay [2], 49.7 µM; in assay [3] it was above 50 µM; in assay [4], 7.11 µM; in assay [5], 19 µM; in assay [6] it was above 50 µM. Besides, the GI50 in assay [7] is 25.6 µM; in assay [8], 22 µM. Also, the TGI is above 50 µM in assay [1]; above 50 µM in assay [2]; above 50 µM in assay [3]; 39.2 µM in assay [4]; above 50 µM in assay [5]; above 50 µM in assay [6]. Also, the TGI in assay [7] and in assay [8] was above 50 µM each time.
On to `Cc1ccc(S(=O)(=O)CC2(Br)CCc3ccccc3C2=O)cc1` (centres undefined), for which the TGI in assay [1] was 43.6 µM; in assay [2], 58.6 µM; in assay [3] it was above 100 µM; in assay [4], above 100 µM; in assay [5], above 100 µM; in assay [6], above 100 µM. The TGI came out at 54.9 µM in assay [7] and 46.8 µM in assay [8].
Turning to `COc1cc(/C=C/c2ccccn2)cc(OC)c1OC`, the TGI in assay [1], in assay [2], in assay [3], in assay [4], in assay [5] and in assay [6] was above 10 µM throughout. For the same molecule, the TGI in assay [7] and in assay [8] was above 10 µM throughout.
As for `O=C(Nc1ccccc1)Nc1ccc(Cl)c(Cl)c1`, the GI50 is 3.04 µM in assay [1]; 2.85 µM in assay [2]; 3.79 µM in assay [3]; 2.58 µM in assay [4]; 2.83 µM in assay [5]; 3.1 µM in assay [6]. Besides, the GI50 in assay [7] is 5.35 µM; in assay [8], 3.23 µM. Besides, the TGI in assay [1] was 11.1 µM; in assay [2] it was 20.2 µM; in assay [3], above 100 µM; in assay [4], above 100 µM; in assay [5], 9.83 µM; in assay [6] it was above 100 µM. Also, the TGI in assay [7] is above 100 µM; in assay [8] it was 20.8 µM.
On to `CC(C)COC(c1ccc2c(c1)OCO2)C(C)Br` (centres undefined), for which the TGI was 49.7 µM in assay [1]; 45.5 µM in assay [2]; above 100 µM in assay [3]; 72.9 µM in assay [4]; 43 µM in assay [5]; above 100 µM in assay [6]. The figures for the TGI in assay [7] and in assay [8] were 55.7 µM and 93.8 µM, respectively.
Turning to `O=c1[nH]c(SCc2ccccc2[N+](=O)[O-])nc2nc[nH]c12`, the TGI in assay [1], in assay [2], in assay [3], in assay [4], in assay [5] and in assay [6] was above 100 µM each time. For the same molecule, the TGI in assay [7] and in assay [8] was above 100 µM in each case. Besides, in assay [7], the GI50 was > 100 µM and 49.5 µM.
Turning to `COC(=O)[C@]12CC[C@@H](C)[C@H](C)[C@@H]1C1=CC[C@@H]3[C@@]4(C)CC(=O)[C@H](O)[C@@](C)(CO)[C@@H]4C(=O)C[C@@]3(C)[C@]1(C)CC2`, the GI50 was 14.3 µM in assay [1]; 14.5 µM in assay [2]; 11.2 µM in assay [3]; 13.9 µM in assay [4]; 0.53 µM in assay [5]; 12.9 µM in assay [6]. Also, the results for the GI50 in assay [7] and in assay [8] were 12.7 µM and 11.7 µM, respectively. Moreover, the TGI in assay [1] came to 29.5 µM; in assay [2], 30.4 µM; in assay [3], 40.7 µM; in assay [4], 31.1 µM; in assay [5], 19.4 µM; in assay [6], 27.8 µM. For the same molecule, the TGI in assay [7] turned out to be 27.1 µM; in assay [8], 25.1 µM.
